1 compound from PMC5218480 (PLoS ONE, 2017) can be followed below.

The assay concerns MV-4-11 cells. Kind of assay: Gene expression microarray analysis (Affymetrix PrimeView) and GSEA. The assay is classed as cell-based, human. On the set-up: RFU PODN (11730768_x_at) / Fold change /veh PODN (11730768_x_at) / RFU LINC00158 (11744669_a_at) / Fold change /veh LINC00158 (11744669_a_at) / RFU DUSP10 (11751237_a_at) / Fold change /veh DUSP10 (11751237_a_at) / RFU ID3 (11757404_x_at) / Fold change /veh ID3 (11757404_x_at) / RFU PLEKHG5 (11737974_s_at) / Fold change /veh PLEKHG5 (11737974_s_at) / RFU LRRC4B (11730491_at) / Fold change /veh LRRC4B (11730491_at) / RFU GIMAP4 (11747438_a_at) / Fold change /veh GIMAP4 (11747438_a_at) / RFU KRT8 (11758183_x_at) / Fold change /veh KRT8 (11758183_x_at) / RFU CNN1 (11734310_a_at) / Fold change /veh CNN1 (11734310_a_at) / RFU VPS37D (11726825_at) / Fold change /veh VPS37D (11726825_at) / RFU C10orf10 (11716522_x_at) / Fold change /veh C10orf10 (11716522_x_at) / RFU KIR2DL2 /// KIR2DL4 /// KIR2DL5A /// KIR2DL5B /// KIR2DS1 /// KIR2DS2 /// KIR2DS3 /// KIR2DS4 /// KIR3DL3 /// KIR3DL3 /// KIR3DS1 (11738374_at) / Fold change /veh KIR2DL2 /// KIR2DL4 /// KIR2DL5A /// KIR2DL5B /// KIR2DS1 /// KIR2DS2 /// KIR2DS3 /// KIR2DS4 /// KIR3DL3 /// KIR3DL3 /// KIR3DS1 (11738374_at) / RFU C1QL1 (11718748_at) / Fold change /veh C1QL1 (11718748_at) / RFU TMPRSS4 (11747572_a_at) / Fold change /veh TMPRSS4 (11747572_a_at) / RFU HAMP (11756126_x_at) / Fold change /veh HAMP (11756126_x_at) / RFU RNFT2 (11725882_a_at) / Fold change /veh RNFT2 (11725882_a_at) / RFU NR4A2 (11747474_a_at) / Fold change /veh NR4A2 (11747474_a_at) / RFU ABCC12 (11746883_a_at) / Fold change /veh ABCC12 (11746883_a_at) / RFU TMEM136 (11760407_x_at) / Fold change /veh TMEM136 (11760407_x_at) / RFU CLDN22 /// WWC2 (11732394_at) / Fold change /veh CLDN22 /// WWC2 (11732394_at) / RFU HLA-DPB1 (11760878_x_at) / Fold change /veh HLA-DPB1 (11760878_x_at) / RFU SPINT1 (11716480_a_at) / Fold change /veh SPINT1 (11716480_a_at) / RFU GAP43 (11754022_s_at) / Fold change /veh GAP43 (11754022_s_at) / RFU A4GNT (11735810_at) / Fold change /veh A4GNT (11735810_at) / RFU PRB3 (11715151_x_at) / Fold change /veh PRB3 (11715151_x_at) / RFU TUBB4B (11761932_at) / Fold change /veh TUBB4B (11761932_at) / RFU CAPN14 (11732068_a_at) / Fold change /veh CAPN14 (11732068_a_at) / RFU TMCC2 (11721928_a_at) / Fold change /veh TMCC2 (11721928_a_at) / RFU IRGQ (11745062_a_at) / Fold change /veh IRGQ (11745062_a_at) / RFU FAM174B (11720279_a_at) / Fold change /veh FAM174B (11720279_a_at) / RFU TMPRSS4 (11748680_a_at) / Fold change /veh TMPRSS4 (11748680_a_at) / RFU FAM212B (11763350_a_at) / Fold change /veh FAM212B (11763350_a_at) / RFU PLEKHG5 (11743358_a_at) / Fold change /veh PLEKHG5 (11743358_a_at) / RFU ZSCAN30 (11745921_a_at) / Fold change /veh ZSCAN30 (11745921_a_at) / RFU CMKLR1 (11741424_a_at) / Fold change /veh CMKLR1 (11741424_a_at) / RFU LOC101060620 /// MAPK8IP1 (11723275_at) / Fold change /veh LOC101060620 /// MAPK8IP1 (11723275_at) / RFU SPTSSB (11747773_x_at) / Fold change /veh SPTSSB (11747773_x_at) / RFU PRSS12 (11739890_at) / Fold change /veh PRSS12 (11739890_at) / RFU BIN1 (11741810_x_at) / Fold change /veh BIN1 (11741810_x_at) / RFU WNT11 (11732464_a_at) / Fold change /veh WNT11 (11732464_a_at) / RFU C10orf10 (11716521_a_at) / Fold change /veh C10orf10 (11716521_a_at) / RFU C5orf56 (11738089_at) / Fold change /veh C5orf56 (11738089_at) / RFU CYB561 (11721691_x_at) / Fold change /veh CYB561 (11721691_x_at) / RFU ANKRD19P (11752326_a_at) / Fold change /veh ANKRD19P (11752326_a_at) / RFU OR2T12 /// OR2T33 /// OR2T8 (11738714_s_at) / Fold change /veh OR2T12 /// OR2T33 /// OR2T8 (11738714_s_at) / RFU VCAN (11748164_a_at) / Fold change /veh VCAN (11748164_a_at) / RFU JSRP1 (11732532_at) / Fold change /veh JSRP1 (11732532_at) / RFU KRTAP10-11 (11738290_x_at) / Fold change /veh KRTAP10-11 (11738290_x_at) / RFU MYO3A (11730013_a_at) / Fold change /veh MYO3A (11730013_a_at) / RFU EBF3 (11725865_a_at) / Fold change /veh EBF3 (11725865_a_at) / RFU CAMK2N1 (11719241_x_at) / Fold change /veh CAMK2N1 (11719241_x_at) / RFU C5orf56 (11738088_a_at) / Fold change /veh C5orf56 (11738088_a_at) / RFU OLFML3 (11715873_a_at) / Fold change /veh OLFML3 (11715873_a_at) / RFU LOC100653217 /// NTM (11731650_a_at) / Fold change /veh LOC100653217 /// NTM (11731650_a_at) / RFU MAPK11 (11762145_a_at) / Fold change /veh MAPK11 (11762145_a_at) / RFU FIZ1 (11724087_x_at) / Fold change /veh FIZ1 (11724087_x_at) / RFU OASL (11726364_x_at) / Fold change /veh OASL (11726364_x_at) / RFU SOX15 (11748057_x_at) / Fold change /veh SOX15 (11748057_x_at) / RFU CD79A (11719716_a_at) / Fold change /veh CD79A (11719716_a_at) / RFU HIST1H1D (11736915_at) / Fold change /veh HIST1H1D (11736915_at) / RFU CASKIN2 (11723855_a_at) / Fold change /veh CASKIN2 (11723855_a_at) / RFU LOC730098 (11760151_x_at) / Fold change /veh LOC730098 (11760151_x_at) / RFU OR4N2 (11742367_at) / Fold change /veh OR4N2 (11742367_at) / RFU PRRT2 (11749266_a_at) / Fold change /veh PRRT2 (11749266_a_at) / RFU SNX32 (11753110_a_at) / Fold change /veh SNX32 (11753110_a_at) / RFU CDHR5 (11726645_a_at) / Fold change /veh CDHR5 (11726645_a_at) / RFU RCAN1 (11760418_a_at) / Fold change /veh RCAN1 (11760418_a_at) / RFU FAM167A (11723789_a_at) / Fold change /veh FAM167A (11723789_a_at) / RFU FAM26E (11764081_at) / Fold change /veh FAM26E (11764081_at) / RFU ISYNA1 (11749810_s_at) / Fold change /veh ISYNA1 (11749810_s_at) / RFU ACY1 (11761880_at) / Fold change /veh ACY1 (11761880_at) / RFU 11764098_at / Fold change /veh 11764098_at / RFU SAMD14 (11745864_x_at) / Fold change /veh SAMD14 (11745864_x_at) / RFU NPB (11741838_a_at) / Fold change /veh NPB (11741838_a_at) / RFU TMPRSS6 (11731388_a_at) / Fold change /veh TMPRSS6 (11731388_a_at) / RFU KRTAP10-2 (11738614_at) / Fold change /veh KRTAP10-2 (11738614_at) / RFU ARHGAP8 /// PRR5-ARHGAP8 (11727945_x_at) / Fold change /veh ARHGAP8 /// PRR5-ARHGAP8 (11727945_x_at) / RFU KRTAP5-7 /// NADSYN1 (11734609_at) / Fold change /veh KRTAP5-7 /// NADSYN1 (11734609_at) / RFU RASL12 (11751679_a_at) / Fold change /veh RASL12 (11751679_a_at) / RFU CDKN2B (11736163_a_at) / Fold change /veh CDKN2B (11736163_a_at) / RFU PRF1 (11729649_at) / Fold change /veh PRF1 (11729649_at) / RFU, ZNF638 /// ZNF638-IT1 / Fold change vs veh, ZNF638 /// ZNF638-IT1 / RFU, PANK3 / Fold change vs veh, PANK3 / RFU, SH3YL1 / Fold change vs veh, SH3YL1 / RFU, ZEB2 / Fold change vs veh, ZEB2 / RFU, NRIP1 / Fold change vs veh, NRIP1 / RFU, PTTG1IP / Fold change vs veh, PTTG1IP / RFU, CAPN2 / Fold change vs veh, CAPN2 / RFU, MED14 / Fold change vs veh, MED14 / RFU, SNORA58 / Fold change vs veh, SNORA58 / RFU, C1orf63 / Fold change vs veh, C1orf63 / RFU, LRRFIP1 / Fold change vs veh, LRRFIP1 / RFU, NDUFAF7 / Fold change vs veh, NDUFAF7 / RFU, SLC12A2 / Fold change vs veh, SLC12A2 / RFU, IBTK / Fold change vs veh, IBTK / RFU, ESF1 / Fold change vs veh, ESF1 / Fold change vs veh, TMEM50B / RFU, TAOK1 / Fold change vs veh, TAOK1 / RFU, ACBD3 / Fold change vs veh, ACBD3 / RFU, TMA16 / Fold change vs veh, TMA16 / RFU, RWDD3 / Fold change vs veh, RWDD3 / RFU, BCAT1 / Fold change vs veh, BCAT1 / RFU, EDEM3 / Fold change vs veh, EDEM3 / RFU, TMEM33 / Fold change vs veh, TMEM33 / RFU, WDR75 / Fold change vs veh, WDR75 / RFU, AHCTF1 / Fold change vs veh, AHCTF1 / RFU, TFRC / Fold change vs veh, TFRC / RFU, ZDHHC17 / Fold change vs veh, ZDHHC17 / RFU, NOM1 / Fold change vs veh, NOM1 / RFU, ARL8B / Fold change vs veh, ARL8B / RFU, ZBTB11 / Fold change vs veh, ZBTB11 / RFU, TAMM41 / Fold change vs veh, TAMM41 / RFU, KIAA1704 /// LOC100996395 / Fold change vs veh, KIAA1704 /// LOC100996395 / RFU, ING1 / Fold change vs veh, ING1 / RFU, TRMT61B / Fold change vs veh, TRMT61B / RFU, FUBP3 / Fold change vs veh, FUBP3 / RFU, TP53 / Fold change vs veh, TP53 / RFU, TNKS2 / Fold change vs veh, TNKS2 / RFU, ZFP14 / Fold change vs veh, ZFP14 / RFU, ACTR2 / Fold change vs veh, ACTR2 / RFU, PPP3R1 / Fold change vs veh, PPP3R1 / RFU, PIK3R1 / Fold change vs veh, PIK3R1 / RFU, HNRNPA1 / Fold change vs veh, HNRNPA1 / RFU, RNF170 / Fold change vs veh, RNF170 / RFU, ZNF28 / Fold change vs veh, ZNF28 / RFU, RNGTT / Fold change vs veh, RNGTT / RFU, OGT / Fold change vs veh, OGT / RFU, BRD1 / Fold change vs veh, BRD1 / RFU, MARS / Fold change vs veh, MARS / RFU, ZNF655 / Fold change vs veh, ZNF655 / RFU, FAHD1 / Fold change vs veh, FAHD1 / RFU, BDP1 / Fold change vs veh, BDP1 / RFU, LRRCC1 / Fold change vs veh, LRRCC1 / RFU, ARID1A / Fold change vs veh, ARID1A / RFU, ZNF146 / Fold change vs veh, ZNF146 / RFU, ZNF330 / Fold change vs veh, ZNF330 / RFU, GPN3 / Fold change vs veh, GPN3 / RFU, C9orf123 / Fold change vs veh, C9orf123 / RFU, N4BP2L2 / Fold change vs veh, N4BP2L2 / RFU, ARFIP1 / Fold change vs veh, ARFIP1 / RFU, FAM179B / Fold change vs veh, FAM179B / RFU, BCL10 / Fold change vs veh, BCL10 / RFU, UHRF1BP1L / Fold change vs veh, UHRF1BP1L / RFU, BET1 / Fold change vs veh, BET1 / RFU, CNOT2 / Fold change vs veh, CNOT2 / RFU, ZNF268 / Fold change vs veh, ZNF268 / Fold change vs veh, ZNF507 / RFU, DGCR2 / Fold change vs veh, DGCR2 / RFU, WDSUB1 / Fold change vs veh, WDSUB1 / Fold change vs veh, HSP90B1 /// MIR3652 / RFU, ADSS / Fold change vs veh, ADSS / RFU, GK / Fold change vs veh, GK / RFU, ZNF148 / Fold change vs veh, ZNF148 / RFU, TAF9 / Fold change vs veh, TAF9 / RFU, SLC1A5 / Fold change vs veh, SLC1A5 / RFU, SLMO2 / Fold change vs veh, SLMO2 / RFU, ABCC4 / Fold change vs veh, ABCC4 / RFU, LOC101060439 /// RAP1B / Fold change vs veh, LOC101060439 /// RAP1B / RFU, RFX7 / Fold change vs veh, RFX7 / RFU, GTPBP10 / Fold change vs veh, GTPBP10 / RFU, CNEP1R1 / Fold change vs veh, CNEP1R1 / RFU, BIVM-ERCC5 /// ERCC5 / Fold change vs veh, BIVM-ERCC5 /// ERCC5 / RFU, ILF3 / Fold change vs veh, ILF3 / RFU 11762660_at / Fold change /veh 11762660_at / RFU VCAN (11757783_s_at) / Fold change /veh VCAN (11757783_s_at) / RFU DDX43 (11728927_at) / Fold change /veh DDX43 (11728927_at) / RFU KRT8 (11758188_x_at) / Fold change /veh KRT8 (11758188_x_at) / RFU NKD1 (11759106_at) / Fold change /veh NKD1 (11759106_at) / RFU SRD5A1 (11742802_a_at) / Fold change /veh SRD5A1 (11742802_a_at) / RFU TPSAB1 /// TPSB2 (11721975_s_at) / Fold change /veh TPSAB1 /// TPSB2 (11721975_s_at) / RFU GSTM3 (11746129_a_at) / Fold change /veh GSTM3 (11746129_a_at) / RFU IL23R (11737362_x_at) / Fold change /veh IL23R (11737362_x_at) / RFU TMEM51 (11727254_a_at) / Fold change /veh TMEM51 (11727254_a_at) / RFU PIWIL2 (11732686_x_at) / Fold change /veh PIWIL2 (11732686_x_at) / RFU ORM1 (11744905_x_at) / Fold change /veh ORM1 (11744905_x_at) / RFU CCDC152 (11743942_at) / Fold change /veh CCDC152 (11743942_at) / RFU ECM1 (11717891_a_at) / Fold change /veh ECM1 (11717891_a_at) / RFU IL23R (11748794_a_at) / Fold change /veh IL23R (11748794_a_at) / RFU TNFAIP8L3 (11732012_x_at) / Fold change /veh TNFAIP8L3 (11732012_x_at) / RFU MBOAT4 (11741988_at) / Fold change /veh MBOAT4 (11741988_at) / RFU 11764193_at / Fold change /veh 11764193_at / RFU TMEM53 (11763286_at) / Fold change /veh TMEM53 (11763286_at) / RFU MAGEB2 (11727129_at) / Fold change /veh MAGEB2 (11727129_at) / RFU TMEM200A (11744735_a_at) / Fold change /veh TMEM200A (11744735_a_at) / RFU CCDC152 (11751479_a_at) / Fold change /veh CCDC152 (11751479_a_at) / RFU FAM211A (11726209_a_at) / Fold change /veh FAM211A (11726209_a_at) / RFU RGS16 (11746705_a_at) / Fold change /veh RGS16 (11746705_a_at) / RFU VCAN (11755009_s_at) / Fold change /veh VCAN (11755009_s_at) / RFU RHOB (11743442_s_at) / Fold change /veh RHOB (11743442_s_at) / RFU RGS16 (11720943_a_at) / Fold change /veh RGS16 (11720943_a_at) / RFU RGS16 (11720944_at) / Fold change /veh RGS16 (11720944_at) / RFU, VPS4B / Fold change vs veh, VPS4B / RFU, CREB1 / Fold change vs veh, CREB1 / RFU, DNAJC13 / Fold change vs veh, DNAJC13 / RFU, GNAQ / Fold change vs veh, GNAQ / RFU, CDK5R1 / Fold change vs veh, CDK5R1 / RFU, ZRANB3 / Fold change vs veh, ZRANB3 / RFU, CUL4A / Fold change vs veh, CUL4A / RFU, CCNY / Fold change vs veh, CCNY / RFU, UFL1 / Fold change vs veh, UFL1 / RFU, COG3 / Fold change vs veh, COG3 / RFU, DIAPH2 / Fold change vs veh, DIAPH2 / RFU, SKA2 / Fold change vs veh, SKA2 / RFU, AFF3 / Fold change vs veh, AFF3 / RFU, LMF1 / Fold change vs veh, LMF1 / RFU, IPO11 / Fold change vs veh, IPO11 / RFU, DFFB / Fold change vs veh, DFFB / RFU, FOXP1 / Fold change vs veh, FOXP1 / RFU, CARD8 / Fold change vs veh, CARD8 / RFU, STRN3 / Fold change vs veh, STRN3 / RFU, ADK / Fold change vs veh, ADK / RFU, RASSF2 / Fold change vs veh, RASSF2 / RFU, WIPF1 / Fold change vs veh, WIPF1 / RFU, LARP1B / Fold change vs veh, LARP1B / RFU, RASA1 / Fold change vs veh, RASA1 / RFU, RB1 / Fold change vs veh, RB1 / RFU, PPFIA1 / Fold change vs veh, PPFIA1 / RFU, MAT2A / Fold change vs veh, MAT2A / RFU, CCT5 / Fold change vs veh, CCT5 / RFU, WDR92 / Fold change vs veh, WDR92 / RFU, CUX1 / Fold change vs veh, CUX1 / RFU, TTC7A / Fold change vs veh, TTC7A / RFU, TMEM135 / Fold change vs veh, TMEM135 / RFU, DEPTOR / Fold change vs veh, DEPTOR / RFU, CPM / Fold change vs veh, CPM / RFU, DNAJB6 / Fold change vs veh, DNAJB6 / RFU, CACNA2D3 / Fold change vs veh, CACNA2D3 / RFU, DTX4 / Fold change vs veh, DTX4 / RFU, TFCP2 / Fold change vs veh, TFCP2 / RFU, GMCL1 /// GMCL1P1 / Fold change vs veh, GMCL1 /// GMCL1P1 / RFU, AEBP2 / Fold change vs veh, AEBP2 / RFU, SNHG1 /// SNORD22 /// SNORD25 /// SNORD26 /// SNORD27 /// SNORD28 /// SNORD29 /// SNORD31 / Fold change vs veh, SNHG1 /// SNORD22 /// SNORD25 /// SNORD26 /// SNORD27 /// SNORD28 /// SNORD29 /// SNORD31 / Fold change (Aza/veh), C12orf56 (ProbeSet 11735607_a_at) / Fold change (ACY-1035/veh), C12orf56 (ProbeSet 11735607_a_at) / Fold change (Aza/veh), FGFR1OP (ProbeSet 11751329_s_at) / Fold change (ACY-1035/veh), FGFR1OP (ProbeSet 11751329_s_at) / Fold change (Aza/veh), VPS36 (ProbeSet 11739960_a_at) / Fold change (ACY-1035/veh), VPS36 (ProbeSet 11739960_a_at) / RFU SYPL1 (11715823_x_at) / Fold change /veh SYPL1 (11715823_x_at) / RFU IGFBP7 (11715501_s_at) / Fold change /veh IGFBP7 (11715501_s_at) / RFU REEP3 (11722064_at) / Fold change /veh REEP3 (11722064_at) / RFU IGLL1 (11728026_x_at) / Fold change /veh IGLL1 (11728026_x_at): dose or concentration left out as unconfirmed. As to conditions: ProbeSet 11740781_a_at; LIST B.

With `Nc1ccc(-c2cccs2)cc1NC(=O)c1ccc2c(c1)cc(C1CC1)n2CCN1CCOCC1` [ACY-1035], the “RFU, ILF3” value stood at 238.85 RFU.
